Measurements published in patent US9670242B2, “Tetracyclic anthraquinone derivatives” (Tianjin Hemay Bio-Tech Co., Ltd, priority 2012, dated 2017).
One block for each compound: values may come before it.

How the values were obtained:
SK-OV-3 cells = experiment: SK-OV-3 cell growth inhibition test (MTT assay); assay type: cell-based, human; settings: growth inhibition at 667 nM, 69 h
Summary of the method: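 Human ovarian SK-OV-3 cells, 4000 per well in McCoy's 5A with 10% FBS, rested overnight, then grown 69 h with compound at 37 °C, 5% CO2. MTT (0.5 mg/mL, 3 h), DMSO solubilisation, OD at 490 nm; inhibition ratio computed against untreated and blank wells.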

MDA-MB-453 cells = experiment: MDA-MB-453 cell growth inhibition test (SRB assay); assay type: cell-based, human; settings: growth inhibition at 2000 nM, 69.5 h
Summary of the method: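 MDA-MB-453 cells (7000/well) in L15 with 10% FBS were seeded overnight, then exposed to compound for 69.5 h at 37 °C and 5% CO2. After TCA fixation and SRB staining, dye was solubilised in Tris and OD read at 570 nm. Inhibition = (PC−n)/(PC−NC)×100%.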

22Rv1 cells = experiment: 22Rv1 cell growth inhibition test (SRB assay); assay type: cell-based, human; settings: growth inhibition at 222 nM, 73 h
Summary of the method: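 Human prostate cancer 22Rv1 cells seeded at 7000 cells/well, incubated overnight, then exposed to compound for 73 h at 37° C, 5% CO2. TCA-fixed cells stained with SRB, dye dissolved in 10 mM Tris, OD read at 570 nm. Inhibition = (PC−n)/(PC−NC)×100% against untreated and cell-free blank wells.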

DU-145 cells = experiment: DU-145 cell growth inhibition test (MTT assay); assay type: cell-based; settings: 72 h
Method: DU-145 Cell Growth Inhibition Test (MTT Assay)
II. Reagents and Consumable Materials
Culture medium: 90% EMEM+10% FBS (fetal calf serum); Pancreatin (0.25% (w/v) solution was formulated with PBS, 0.53 mM of EDTA was added in the formulation); PBS; 96-well culture plate.
1. A plate (10 cm) of cells in logarithmic growth phase that were normally cultured was collected;
2. The culture solution was sucked out. The plate was washed with 5 mL of PBS once or twice;
3. PBS was sucked out. 1.5 mL of 0.25% pancreatin was added to the plate to infiltrate the cells for 1 min;
4. The culture plate was placed in an incubator. Digestion was carried out for about 1 min at 37° C.;
5. 3 mL of complete culture solution was added to the culture plate to stop the digestion. The cells were carefully scoured with micropipette (1 mL) to give a uniform cell suspension. The suspension was implanted into a 96-well cell culture disc by 4000 cells/100 μL per well. The culture plate was incubated overnight under 5% CO2 at 37° C. In day 2, 100 μL of culture solution comprising a compound was added in each well. The plate was further incubated for 72 h under 5% CO2 at 37° C.;
6. The culture solution was sucked out;
7. 100 μL of serum-free culture solution containing 0.5 mg/mL MTT was added in each well. The plate was incubated for 3 h;
8. The culture solution was carefully sucked out;
9. 100 μL of DMSO was added in each well and vibrated to dissolve;
10. OD values were determined at 490 nM.
IV. Results and Treatments
1. Calculation of Relative Inhibition Ratio The inhibition ratio of a compound on cell growth=(PC−n)/(PC−NC)×100%
PC: OD values of cells after normal growth in control wells without a compound;
n: OD values of cells after growth in test wells with a compound;
NC: Background OD values of blank wells without a compound and cells.

Structure (SMILES): CC(=O)O.COc1cccc2c1C(=O)c1c(O)c3c(c(O)c1C2=O)CC(O)(C(=O)COC(=O)CCC(=O)NCCCN1CCN(C)CC1)CC3O[C@H]1C[C@H](n2cccc2)[C@H](O)[C@H](C)O1 (stereo partly drawn) [Example 81, 10-((3′-(pyrrol-1-yll)-2′,3′,6′-trideoxy-alphal-l-lyxo-hexylpyranyl)oxy)-7,8,9,10-tetrahydro-6,8,11-trihydroxy-13-oxo-14-(4-((3-(4-methylpiperazin-1-yl)propyl)amino)-4-oxo-butyrato)-1-methoxy-5,12-naphthalenedione acetate]
Inhibition Ratio (%) (SK-OV-3 cells): 56.4%
Inhibition Ratio (%) (MDA-MB-453 cells): 72%
Inhibition Ratio (%) (22Rv1 cells): 56.5%

IC50 (DU-145 cells): 34 nM
Structure (SMILES): COc1cccc2c1C(=O)c1c(O)c3c(c(O)c1C2=O)CC(O)(C(=O)COC(=O)CCC(=O)NCCOCCO)CC3OC1CC(n2cccc2)C(O)C(C)O1 (centres unmarked) [Example 62]
Inhibition Ratio (%) (SK-OV-3 cells): 63.6%
Inhibition Ratio (%) (MDA-MB-453 cells): 83.7%
Inhibition Ratio (%) (22Rv1 cells): 57%

Structure (SMILES): COc1cccc2c1C(=O)c1c(O)c3c(c(O)c1C2=O)CC(O)(C(=O)COC(=O)CCC(=O)O)CC3OC1CC(n2cccc2)C(O)C(C)O1 (centres unmarked) [Compound A, 3′-pyrrolyldoxorubicin-14-oxo-succinic acid monoester, reference compound]
IC50 (DU-145 cells): 99 nM
